ChEMBL document CHEMBL2429790, “Identification of 2-amino-5-aryl-pyrazines as inhibitors of human lactate dehydrogenase” (Bioorg Med Chem Lett, 2013)
In brackets after ≈: the same amount, converted by molar mass.

Key:
[1] = molecular target: T1, L-lactate dehydrogenase A chain (Homo sapiens, UniProt P00338); experiment: Inhibition of human recombinant carboxy-terminal his-tagged LDHA (1 to 331) expressed in Escherichia coli using pyruvate as substrate assessed as disappearance of NADH after 10 mins by fluorescence assay
[2] = molecular target: T1, L-lactate dehydrogenase A chain; experiment: Binding affinity to human recombinant carboxy-terminal his-tagged LDHA (1 to 331) expressed in Escherichia coli by surface plasmon resonance analysis in presence of NADH
[3] = molecular target: L-lactate dehydrogenase B chain (Homo sapiens, UniProt P07195)
Chain of L-lactate dehydrogenase B chain (P07195 whole entry): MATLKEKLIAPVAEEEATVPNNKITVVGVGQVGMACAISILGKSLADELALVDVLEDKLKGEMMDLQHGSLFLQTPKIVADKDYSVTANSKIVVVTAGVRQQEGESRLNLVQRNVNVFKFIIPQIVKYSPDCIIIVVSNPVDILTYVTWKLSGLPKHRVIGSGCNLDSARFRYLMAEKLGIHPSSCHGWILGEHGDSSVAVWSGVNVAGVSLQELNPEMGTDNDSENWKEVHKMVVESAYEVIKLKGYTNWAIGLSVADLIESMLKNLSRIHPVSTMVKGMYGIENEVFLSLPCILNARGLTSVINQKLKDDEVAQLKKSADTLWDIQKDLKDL

[4] = Half life in Sprague-Dawley rat at 1.5 mg/kg, po and 0.5 mg/kg, iv; type: ADME, organism-based; conditions: in vivo
[5] = Permeability across basolateral to apical side in MDCK cells; type: ADME, cell-based, Canis lupus familiaris; conditions: dog, read-out: permeability
[6] = molecular target: Cytochrome P450 2C9 (Homo sapiens, UniProt P11712); experiment: Inhibition of CYP2C9 (unknown origin) up to 10 uM; type: ADME
Chain of Cytochrome P450 2C9 (P11712 whole entry): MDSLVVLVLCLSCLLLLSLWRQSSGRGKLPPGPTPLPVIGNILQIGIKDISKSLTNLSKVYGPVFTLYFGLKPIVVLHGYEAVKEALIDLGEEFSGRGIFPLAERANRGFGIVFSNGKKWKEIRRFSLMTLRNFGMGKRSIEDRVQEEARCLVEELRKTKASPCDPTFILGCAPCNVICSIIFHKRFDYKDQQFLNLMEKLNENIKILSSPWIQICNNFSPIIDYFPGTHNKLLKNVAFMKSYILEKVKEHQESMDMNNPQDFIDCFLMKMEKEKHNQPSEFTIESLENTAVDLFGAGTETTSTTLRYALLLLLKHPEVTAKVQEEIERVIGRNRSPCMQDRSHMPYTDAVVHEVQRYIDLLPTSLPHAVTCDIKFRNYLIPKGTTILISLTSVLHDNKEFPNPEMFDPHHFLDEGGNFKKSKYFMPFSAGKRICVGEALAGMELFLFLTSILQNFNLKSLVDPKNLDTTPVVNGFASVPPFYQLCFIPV

[7] = molecular target: Cytochrome P450 2C19 (Homo sapiens, UniProt P33261); experiment: Inhibition of CYP2C19 (unknown origin) up to 10 uM; type: ADME
Chain of Cytochrome P450 2C19 (P33261 whole entry): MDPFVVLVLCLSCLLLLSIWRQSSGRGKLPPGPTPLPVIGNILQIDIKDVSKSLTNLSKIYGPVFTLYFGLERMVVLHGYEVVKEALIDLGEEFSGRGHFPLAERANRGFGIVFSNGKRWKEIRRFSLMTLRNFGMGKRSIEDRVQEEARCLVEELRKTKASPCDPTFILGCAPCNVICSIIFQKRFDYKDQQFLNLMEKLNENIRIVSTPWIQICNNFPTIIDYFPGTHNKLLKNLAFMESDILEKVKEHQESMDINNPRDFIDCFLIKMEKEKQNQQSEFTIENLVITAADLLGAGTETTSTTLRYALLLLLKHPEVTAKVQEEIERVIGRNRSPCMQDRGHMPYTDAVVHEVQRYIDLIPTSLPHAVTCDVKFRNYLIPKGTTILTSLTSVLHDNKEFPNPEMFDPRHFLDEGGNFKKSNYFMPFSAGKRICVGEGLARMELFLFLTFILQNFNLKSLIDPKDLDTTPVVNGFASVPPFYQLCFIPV

[8] = Cytotoxicity against human MCF7-neo/Her2 cells assessed as cell viability at 50 uM by Sytox Green/Hoescht 33342 staining assay; type: cell-based
[9] = Permeability across apical to basolateral side in MDCK cells; type: ADME, cell-based, Canis lupus familiaris; conditions: dog, read-out: permeability
[10] = molecular target: Cytochrome P450 3A4 (Homo sapiens, UniProt P08684); experiment: Inhibition of CYP3A4 (unknown origin) up to 10 uM; type: ADME
Chain of Cytochrome P450 3A4 (P08684 whole entry): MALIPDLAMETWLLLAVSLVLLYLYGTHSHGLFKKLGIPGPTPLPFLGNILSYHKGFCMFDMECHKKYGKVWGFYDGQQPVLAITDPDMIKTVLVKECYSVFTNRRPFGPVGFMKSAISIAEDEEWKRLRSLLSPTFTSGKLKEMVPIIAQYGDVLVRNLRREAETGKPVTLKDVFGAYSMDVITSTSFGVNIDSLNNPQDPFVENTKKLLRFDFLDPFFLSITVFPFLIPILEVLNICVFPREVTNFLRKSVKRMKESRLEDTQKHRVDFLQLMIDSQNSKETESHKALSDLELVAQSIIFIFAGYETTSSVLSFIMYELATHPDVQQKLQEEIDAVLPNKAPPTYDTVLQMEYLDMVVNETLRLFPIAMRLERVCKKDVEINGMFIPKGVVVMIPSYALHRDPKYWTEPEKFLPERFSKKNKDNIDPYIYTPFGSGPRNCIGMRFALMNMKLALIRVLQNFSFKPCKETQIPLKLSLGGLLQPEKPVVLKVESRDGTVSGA

[11] = molecular target: Cytochrome P450 2D6 (Homo sapiens, UniProt P10635); experiment: Inhibition of CYP2D6 (unknown origin) up to 10 uM; type: ADME
Chain of Cytochrome P450 2D6 (P10635 whole entry): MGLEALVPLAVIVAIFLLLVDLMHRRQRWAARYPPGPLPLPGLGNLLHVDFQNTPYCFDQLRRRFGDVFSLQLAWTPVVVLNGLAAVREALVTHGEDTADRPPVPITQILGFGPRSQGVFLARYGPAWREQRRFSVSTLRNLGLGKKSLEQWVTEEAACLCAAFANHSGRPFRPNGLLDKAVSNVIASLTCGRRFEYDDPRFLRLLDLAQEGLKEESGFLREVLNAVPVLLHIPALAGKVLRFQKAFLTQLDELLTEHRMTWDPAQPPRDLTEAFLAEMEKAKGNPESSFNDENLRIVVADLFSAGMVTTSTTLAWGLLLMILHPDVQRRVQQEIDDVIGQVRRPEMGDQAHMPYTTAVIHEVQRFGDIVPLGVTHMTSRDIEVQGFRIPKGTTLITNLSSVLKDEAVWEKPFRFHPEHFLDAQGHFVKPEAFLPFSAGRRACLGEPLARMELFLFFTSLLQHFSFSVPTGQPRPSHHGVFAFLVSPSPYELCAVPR

[12] = molecular target: T2, Cytochrome P450 1A2 (Homo sapiens, UniProt P05177); experiment: Inhibition of CYP1A2 (unknown origin) up to 10 uM; type: ADME
T2 sequence (P05177 whole entry): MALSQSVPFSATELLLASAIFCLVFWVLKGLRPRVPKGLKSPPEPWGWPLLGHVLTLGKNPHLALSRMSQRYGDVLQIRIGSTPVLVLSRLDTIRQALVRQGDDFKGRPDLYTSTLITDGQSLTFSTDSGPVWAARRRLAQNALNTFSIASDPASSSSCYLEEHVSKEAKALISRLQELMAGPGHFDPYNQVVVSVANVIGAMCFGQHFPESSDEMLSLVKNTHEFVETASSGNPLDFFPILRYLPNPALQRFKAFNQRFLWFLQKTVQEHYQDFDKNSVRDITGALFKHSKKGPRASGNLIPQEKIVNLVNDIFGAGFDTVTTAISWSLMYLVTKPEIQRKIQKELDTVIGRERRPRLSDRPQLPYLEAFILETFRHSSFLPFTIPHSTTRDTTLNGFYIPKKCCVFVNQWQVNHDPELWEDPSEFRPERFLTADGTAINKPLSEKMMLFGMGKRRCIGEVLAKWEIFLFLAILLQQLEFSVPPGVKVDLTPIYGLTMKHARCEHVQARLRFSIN

[13] = Cmax in Sprague-Dawley rat at 0.5 mg/kg, iv; type: ADME, organism-based; design: dose 0.5 mg/kg, route intravenous; conditions: in vivo
[14] = Oral bioavailability in Sprague-Dawley rat at 1.5 mg/kg; type: ADME, organism-based; conditions: in vivo
[15] = Plasma protein binding in human at 5 uM after 4 hrs by equilibrium dialysis method; type: ADME, cell-free; conditions: read-out: PPB
[16] = Volume of distribution in Sprague-Dawley rat at 1.5 mg/kg, po and 0.5 mg/kg, iv; type: ADME, organism-based; conditions: in vivo
[17] = Plasma protein binding in rat at 5 uM after 4 hrs by equilibrium dialysis method; type: ADME, cell-free; conditions: read-out: PPB (converted)
[18] = Aqueous kinetic solubility of the compound at pH 7.4; type: physicochemical; conditions: read-out: Kinetic_solubility
[19] = AUC (infinity) in Sprague-Dawley rat at 1.5 mg/kg, po; type: ADME, organism-based; design: time infinity, dose 1.5 mg/kg, route oral; conditions: plasma
[20] = Plasma clearance in Sprague-Dawley rat at 1.5 mg/kg, po and 0.5 mg/kg, iv; type: ADME, organism-based
[21] = molecular target: T1, L-lactate dehydrogenase A chain; experiment: Binding affinity to human recombinant carboxy-terminal his-tagged LDHA (1 to 331) expressed in Escherichia coli by surface plasmon resonance analysis in absence of NADH

Row | SMILES | IC50 [1] | Kd [2] | IC50 [3] | also measured
1 | C[C@@H](Nc1nc(-c2cccc(C(=O)NS(C)(=O)=O)c2)cnc1N)c1ccccc1 | > 100 µM | > 100 µM | > 100 µM | –
2 | COc1ccc(C(=O)O)cc1-c1cnc(N)c(N[C@H](C)c2ccccc2)n1 | 2 µM | 3 µM | 7 µM | –
3 | Cc1cc(C(=O)O)cc(-c2cnc(N)c(N[C@H](C)c3ccccc3)n2)c1 | 4 µM | 7 µM | 7 µM | –
4 | CCOC(=O)c1cccc(-c2cnc(N)c(N[C@H](C)c3ccccc3)n2)c1 | > 100 µM | > 100 µM | – | –
5 | C[C@@H](Nc1cncc(-c2cccc(C(=O)O)c2)n1)c1ccccc1 | 25 µM | > 100 µM | – | –
6 | C[C@@H](Nc1nc(-n2cc(C(=O)O)cn2)cnc1N)c1ccccc1 | 15 µM | – | 15 µM | –
7 | C[C@@H](Nc1nc(-c2csc(C(=O)O)c2)cnc1N)c1ccccc1 | 50 µM | 33 µM | > 100 µM | –
8 | Cc1nc(N)c(N[C@H](C)c2ccccc2)nc1-c1cccc(C(=O)O)c1 | 91 µM | > 100 µM | > 100 µM | –
9 | C[C@@H](Nc1nc(-c2ccccc2C(=O)O)cnc1N)c1ccccc1 | > 100 µM | > 100 µM | > 100 µM | –
10 | COCCNc1nc(-c2cccc(C(=O)O)c2)cnc1N | > 100 µM | > 100 µM | – | –
11 | C[C@H](c1ccccc1)N(C)c1nc(-c2cccc(C(=O)O)c2)cnc1N | > 100 µM | > 100 µM | – | –
12 | C[C@@H](Nc1nc(-c2ccc(C(=O)O)cc2)cnc1N)c1ccccc1 | 14 µM | – | – | –
13 | CNc1ncc(-c2cccc(C(=O)O)c2)nc1N[C@H](C)c1ccccc1 | 73 µM | > 100 µM | > 100 µM | –
14 | Cc1ccc(-c2cnc(N)c(N[C@H](C)c3ccccc3)n2)cc1C(=O)O | 15 µM | 29 µM | – | –
15 | C[C@@H](Nc1nc(-c2ccc(C(=O)O)c(O)c2)cnc1N)c1ccccc1 | 10 µM | – | – | –
16 | C[C@@H](Nc1cc(-c2cccc(C(=O)O)c2)cnc1N)c1ccccc1 | 18 µM | 29 µM | – | –
17 | C[C@@H](Nc1nc(-c2cccc(C(=O)O)c2)cnc1O)c1ccccc1 | > 100 µM | > 100 µM | > 100 µM | –

Row | SMILES | IC50 [1] | Kd [2] | IC50 [3] | also measured
18 | C[C@@H](Nc1nc(-c2cccc(C(=O)O)c2)cnc1N)C1CCCCC1 | 3 µM | 7 µM | – | –
19 | Cc1ccc(C(=O)O)cc1-c1cnc(N)c(N[C@H](C)c2ccccc2)n1 | 2 µM | 3 µM | 6 µM | –
20 | C[C@H](Nc1nc(-c2cccc(C(=O)O)c2)cnc1N)c1ccccc1 | > 100 µM | > 100 µM | – | –
21 | Cc1ccc(C(=O)O)cc1-c1cnc(N)c(N[C@H](C)c2ccc(Cl)cc2)n1 | 0.5 µM | – | – | half-life [4]: 168 min; Papp B→A [5]: 10.3 ×10⁻⁶ cm/s; inhibition (INH) [6]: Not Active; inhibition (INH) [7]: Not Active; Activity [8]: Non-toxic; Papp A→B [9]: 12.1 ×10⁻⁶ cm/s; inhibition (INH) [10]: Not Active; inhibition (INH) [11]: Not Active; inhibition (INH) [12]: Not Active; Cmax [13]: 2100 nM; bioavailability [14]: 41%; fraction unbound at 4 h, 5 µM [15]: < 0.01; Vd [16]: 1.4 L/kg; fraction unbound at 4 h, 5 µM [17]: 0.01; solubility kinetic [18]: 81 µM (≈ 31 µg/mL); AUC(0-inf) [19]: 0.55 µM·h; clearance [20]: 60 mL/min/kg
22 | C[C@@H](Nc1nc(-c2cc(C(=O)O)ccc2Cl)cnc1N)c1ccccc1 | 2 µM | 5 µM | 8 µM | –
23 | C[C@@H](Nc1nc(-c2ccnc(C(=O)O)c2)cnc1N)c1ccccc1 | 24 µM | 32 µM | – | –
24 | C[C@@H](Nc1nc(-c2cccc(C(=O)O)c2)cnc1N)c1ccc(Cl)cc1 | 2 µM | 5 µM | 5 µM | –
25 | C[C@@H](Nc1nc(-c2cccc(C(=O)O)c2)cnc1N)c1ccccc1 | 4 µM | 7 µM | – | Kd [21]: 857 µM; Papp B→A [5]: 4 ×10⁻⁶ cm/s; inhibition (INH) [6]: Not Active; inhibition (INH) [7]: Not Active; Papp A→B [9]: 9.6 ×10⁻⁶ cm/s; inhibition (INH) [10]: Not Active; inhibition (INH) [11]: Not Active; inhibition (INH) [12]: Not Active; fraction unbound at 4 h, 5 µM [15]: 0.01; fraction unbound at 4 h, 5 µM [17]: 0.04; solubility kinetic [18]: 137 µM (≈ 45.8 µg/mL)
26 | Nc1ncc(-c2cccc(C(=O)O)c2)nc1NCc1ccccc1 | 12 µM | 22 µM | – | –
27 | CC(=O)Nc1ncc(-c2cccc(C(=O)O)c2)nc1N[C@H](C)c1ccccc1 | > 100 µM | – | > 100 µM | –
28 | Cc1c(C(=O)O)cccc1-c1cnc(N)c(N[C@H](C)c2ccccc2)n1 | 35 µM | > 100 µM | – | –
29 | C[C@@H](Nc1nc(-c2cccc(C(N)=O)c2)cnc1N)c1ccccc1 | > 100 µM | > 100 µM | – | –
30 | C[C@@H](Nc1nc(-c2cccc(C(=O)O)c2)cnc1NS(C)(=O)=O)c1ccccc1 | 71 µM | – | > 100 µM | –
31 | C[C@@H](Oc1nc(-c2cccc(C(=O)O)c2)cnc1N)c1ccccc1 | > 100 µM | > 100 µM | > 100 µM | –
32 | CC(C)c1ccc(C(=O)O)cc1-c1cnc(N)c(N[C@H](C)c2ccccc2)n1 | 2 µM | 5 µM | 7 µM | –
33 | Nc1ncc(-c2cccc(C(=O)O)c2)nc1NCC1CCCC1 | 19 µM | 18 µM | – | –
34 | C[C@@H](Nc1nc(-c2cccc(C(=O)O)c2)ccc1N)c1ccccc1 | > 100 µM | > 100 µM | – | –
